The nature of this assay: Inhibition of 5-lipoxygenase in human whole blood.
One may read the IC50 as the midpoint of a concentration-inhibition curve. Low readings indicate greater potency, high ones weaker potency. For the molecule `CCCCCCCCCCOc1cccc(C(O)c2ncc(C)[nH]2)c1` (stereo not drawn), half-maximal inhibition (IC50) required 6.3 µM.
`Cc1cnc(C(O)c2cccc(OCc3ccc(-c4ccccc4)cc3)c2)[nH]1` (stereo not drawn) came in with an IC50 of 7 µM.
With `OC(c1cccc(OCc2ccc3ccccc3c2)c1)c1nccs1` (stereo not drawn) the figure was 5.1 µM.

(Values after BindingDB's records for doi:10.1021/jm00111a038 (Ici Pharmaceuticals Group, 1991).)
